These results are taken from patent US20180155386A1, “PROGESTERONE ANTAGONISTS” (Evestra, Inc., priority 2011, published 2018).

In one experiment the target is T1, progesterone receptor (Homo sapiens, UniProt P06401).
T1 sequence (P06401 1-933): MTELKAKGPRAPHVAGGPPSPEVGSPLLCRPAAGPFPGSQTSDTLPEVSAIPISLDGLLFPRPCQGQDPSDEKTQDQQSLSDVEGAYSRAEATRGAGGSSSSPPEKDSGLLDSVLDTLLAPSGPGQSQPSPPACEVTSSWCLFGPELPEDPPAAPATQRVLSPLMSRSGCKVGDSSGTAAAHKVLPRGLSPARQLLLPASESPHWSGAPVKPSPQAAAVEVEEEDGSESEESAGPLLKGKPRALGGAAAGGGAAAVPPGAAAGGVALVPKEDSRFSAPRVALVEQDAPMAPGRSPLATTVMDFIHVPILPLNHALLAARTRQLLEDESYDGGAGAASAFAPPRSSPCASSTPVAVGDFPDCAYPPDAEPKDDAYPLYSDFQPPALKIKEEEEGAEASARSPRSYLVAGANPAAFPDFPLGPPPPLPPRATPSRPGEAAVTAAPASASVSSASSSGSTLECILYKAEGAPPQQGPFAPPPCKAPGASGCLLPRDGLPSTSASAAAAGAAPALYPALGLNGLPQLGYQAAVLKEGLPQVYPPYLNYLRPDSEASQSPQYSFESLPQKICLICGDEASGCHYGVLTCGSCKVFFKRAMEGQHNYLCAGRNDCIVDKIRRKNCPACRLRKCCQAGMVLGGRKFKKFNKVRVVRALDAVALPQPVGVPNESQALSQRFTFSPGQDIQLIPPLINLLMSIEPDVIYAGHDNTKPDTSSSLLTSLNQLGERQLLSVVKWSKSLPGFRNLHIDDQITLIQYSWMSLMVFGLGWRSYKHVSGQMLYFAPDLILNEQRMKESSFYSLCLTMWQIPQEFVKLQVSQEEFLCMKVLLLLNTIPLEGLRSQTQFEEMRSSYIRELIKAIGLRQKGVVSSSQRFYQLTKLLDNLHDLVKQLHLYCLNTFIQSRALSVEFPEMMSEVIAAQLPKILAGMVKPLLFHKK
Particulars: background statement in words; cited from earlier work.

In experiment [1] the test system is uterine weight of non-pregnant guinea pigs. Description: Uterine weights of guinea pigs. The experiment is classed as in vivo. Particulars: 10 mg s.c. from day 10 of cycle; sacrifice day 18; untreated guinea pig 1.2 g; higher than 1.2 g indicates pure progesterone antagonistic activity. Here is the method: 3 Non-pregnant guinea pigs in the luteal phase of the cycle will be treated with 10 mg of the compound subcutaneously beginning on day 10 of the cycle. Animals were sacrificed on day 18 after the start of the treatment and the uterine weights were obtained at the time of sacrifice. Comparisons will be made to onapristone-treated animals at 10 mg/animal/day s.c

The target in the next experiment is T2, glucocorticoid receptor (Homo sapiens, UniProt P04150).
T2 sequence (P04150 1-777): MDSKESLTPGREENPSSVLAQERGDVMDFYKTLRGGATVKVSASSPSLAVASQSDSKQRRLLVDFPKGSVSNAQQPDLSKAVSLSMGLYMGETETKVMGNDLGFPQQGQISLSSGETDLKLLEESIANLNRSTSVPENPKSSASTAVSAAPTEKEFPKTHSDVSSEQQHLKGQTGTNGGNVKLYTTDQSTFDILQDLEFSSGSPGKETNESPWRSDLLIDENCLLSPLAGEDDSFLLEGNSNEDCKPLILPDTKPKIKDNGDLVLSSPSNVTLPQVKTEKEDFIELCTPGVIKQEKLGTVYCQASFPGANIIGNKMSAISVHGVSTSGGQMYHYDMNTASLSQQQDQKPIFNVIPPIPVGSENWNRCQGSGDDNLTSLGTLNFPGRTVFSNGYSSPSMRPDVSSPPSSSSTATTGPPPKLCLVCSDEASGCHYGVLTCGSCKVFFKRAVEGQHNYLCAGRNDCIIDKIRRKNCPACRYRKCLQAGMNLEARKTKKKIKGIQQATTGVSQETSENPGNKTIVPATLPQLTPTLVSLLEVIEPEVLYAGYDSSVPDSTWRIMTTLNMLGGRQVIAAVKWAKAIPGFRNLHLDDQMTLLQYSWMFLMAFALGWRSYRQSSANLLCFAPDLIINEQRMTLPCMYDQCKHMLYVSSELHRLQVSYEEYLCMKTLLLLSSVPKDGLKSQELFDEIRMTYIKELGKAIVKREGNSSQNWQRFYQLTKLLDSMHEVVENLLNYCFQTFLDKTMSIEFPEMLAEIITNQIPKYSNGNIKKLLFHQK
The note with it: background statement in words; cited from earlier work.

Experiment [2] deals with human breast cancer cell line T47D. Description: In vitro antiproliferative activity in human breast cancer cell line T47D (MTT). In kind it is cell-based. The note with it: 168 h, T47D cells, 7 days after cell seeding. As to the method:
Cells from frozen stock were expanded in T75 cell culture flasks. For the experiment, cells in the logarithmic growth phase (70% confluent) were cultivated for 3 day without estradiol and then washed with PBS, detached by trypsination and suspended in 5 ml of fresh RPMI-1640 medium. Cells were centrifuged for 5 min at 1000 rpm and the pellet was resuspended in RPMI-1640 medium.
Cells were seeded in 96-well plates with a density of 5000 cells/well/in 0.18 mL RPMI-1640 medium. Cells were allowed to attach for 24 h. Visual control for viability at 24 h and cell culture medium change. At this time point, compounds were added in 20 μl to the final concentration. After 3 days medium and compounds where changed again. Finally, 7 days after cell seeding, 20 μl MTT-solution was added to each well and 4 h later the formed tetrazolium salt was measured with a photometer.

Experiment [3] has as its target T3, progesterone receptor-LBD-UAS-bla HEK 293T cells (Homo sapiens, UniProt P06401).
T3 construct: host or cells: HEK 293T
T3 sequence (P06401 679-913 limits assumed): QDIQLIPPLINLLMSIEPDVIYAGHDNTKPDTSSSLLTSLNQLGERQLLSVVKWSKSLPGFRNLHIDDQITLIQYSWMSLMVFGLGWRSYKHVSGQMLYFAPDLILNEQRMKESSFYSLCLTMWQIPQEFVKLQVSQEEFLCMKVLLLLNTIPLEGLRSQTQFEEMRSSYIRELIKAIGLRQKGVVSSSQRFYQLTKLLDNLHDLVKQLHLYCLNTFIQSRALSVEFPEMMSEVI
Description: Progesterone Antagonist Screen (GeneBLAzer Beta-lactamase reporter, activated by control agonist R5020). In kind it is cell-based. The note with it: values relative to RU486, which is 100%; HEK 293T reporter cells, agonist R5020 at EC80. Here is the method: Determination of the agonist/antagonist nature of the test compounds was carried out using Invitrogen's SelectScreen™ Cell-based nuclear receptor profiling service which uses the GeneBLAzer® Beta-lactamase reporter technology. Basically this assay uses a Beta-lactamase cDNA under transcriptional control of an Upstream Activator Sequence (UAS). The UAS is activated by the GAL4 transcription factor DNA binding domain (DBD), which is expressed as a fusion protein with the target receptor ligand binding domain (LBD). Upon ligand binding, the GAL4(DBD)-NR(LDB) binds to the UAS, which controls transcription of Beta-lactamase. Beta-lactamase cleaves a special engineered fluorescent substrate which results in a change in the measured fluorescence wavelength.
The generalized protocol used for the Progesterone Antagonist Screen, activated by control Agonist R5020 is as follows:
The progesterone receptor-LBD-UAS-bla HEK 293T cells are thawed and prepared as described above for the Agonist screen. 4 μL of a 10× serial dilution of control antagonist RU-486 (starting concentration, 100 nM) or test compounds are added to appropriate wells of a TC-Treated assay plate. 32 μL of cell suspension is added to the wells which is then pre-incubated at 37° C./5% CO2 in a humidified incubator with test compounds and control antagonist titration for 30 minutes. 4 μL of a 10× control agonist (see above) at the predetermined EC80 concentration is added to wells containing the control antagonist or test compounds. The plate is incubated for 16-24 hours at 37° C./5% CO2 in a humidified incubator. 8 μL of 1 μM Substrate Loading Solution is added to each well and the plate is incubated for 2 hours at room temperature. The plate is then read on a fluorescence plate reader (Tecan Safire).

pIC50: −log10 of the molar value.

Take `CC#C[C@]1(O)CC[C@H]2[C@@H]3CCC4=CC(=O)CCC4=C3[C@@H](c3ccc(N(C)C)cc3)C[C@@]21C` [RU 486, Mifepristone]: the “antiprogestagenic activity / progesterone antagonism” value at progesterone receptor was “potent progesterone antagonist”. In addition, the “Uterine Weights of Guinea Pigs Treated with antiprogestins (grams)” value in experiment [1] is listed as 1.81 grams. Besides, the “antiglucocorticoid effects / glucocorticoid receptor antagonism” value on glucocorticoid receptor was “overt glucocorticoid receptor antagonism”.
Take `CC(=O)c1ccc([C@H]2C[C@@]3(C)[C@@H](CC[C@@]3(O)C(F)(F)C(F)(F)F)[C@@H]3CCC4=CC(=O)CCC4=C32)cc1` [ZK 230211, Lonaprisan, reference compound]: the pIC50 in experiment [2] is 9.52. The compound also yielded an Emax in experiment [3] of 81%. In addition, the “antiprogestagenic activity / progesterone antagonism” value on progesterone receptor is reported as “high antiprogestagenic activity”. Further, the “antiglucocorticoid effects / glucocorticoid receptor antagonism” value at glucocorticoid receptor is listed as “only marginal antiglucocorticoid effects”.
